Reference: patent publication US20230114728A1 (Venatorx Pharmaceuticals, Inc., priority 2019, published 2023)
Values after ≈ are worked out from the molar mass of the structure shown.

Experiments:
[1] = tested on: A. baumannii ATCC 19606; assay: Broth microdilution MIC in CAMHB; format: cell-based; settings: Acinetobacter baumannii, ATCC19606; MHB; read-out: Minimum Inhibitory Concentration, A. baumannii ATCC 19606
Outline: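 Lowest compound concentration with no visible growth after 16-20 h at 37 °C defines MIC. Plates of 2-fold serial dilutions in cation-adjusted Mueller Hinton broth received 2-8×10^5 CFU/mL of exponentially grown cells, per CLSI methods; panel spans reference, hyper-permeable and efflux-pump-deleted strains.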

[2] = tested on: E. coli AG100; assay: Broth microdilution MIC in CAMHB; format: cell-based; settings: Escherichia coli; E. coli AG100 (wild-type parent); MHB; read-out: Minimum Inhibitory Concentration, E. coli AG100
Outline: (§1)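 Standard CLSI-style microdilution in cation-adjusted Mueller Hinton broth, 2-fold dilution series, incubated 16-20 h at 37° C; endpoint was visual absence of growth.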

[3] = tested on: K. pneumoniae UMM producing SHV-5 and KPC-2; assay: Broth microdilution MIC in CAMHB; format: cell-based; settings: Klebsiella pneumoniae, read-out: Minimum Inhibitory Concentration, K. pneumoniae UMM
Outline: as §1

[4] = tested on: K. pneumoniae SI-117 producing VIM-1; assay: Broth microdilution MIC in CAMHB; format: cell-based; settings: Klebsiella pneumoniae, read-out: Minimum Inhibitory Concentration, K. pneumoniae SI-117
Outline: as §1

[5] = tested on: K. pneumoniae 848844 producing SHV-11 and KPC-2; assay: Broth microdilution MIC in CAMHB; format: cell-based; settings: Klebsiella pneumoniae, read-out: Minimum Inhibitory Concentration, K. pneumoniae 848844
Outline: as §1

[6] = tested on: P. aeruginosa ATCC 35151; assay: Broth microdilution MIC in CAMHB; format: cell-based; settings: Pseudomonas aeruginosa, ATCC35151; MHB; hyper-permeable strain; read-out: Minimum Inhibitory Concentration, P. aeruginosa ATCC 35151
Outline: as §1

[7] = tested on: E. coli ATCC 25922; assay: Broth microdilution MIC in CAMHB; format: cell-based; settings: Escherichia coli, ATCC25922; E. coli ATCC 25922; MHB; read-out: Minimum Inhibitory Concentration, E. coli 25922
Outline: as §1

[8] = tested on: E. coli D22; assay: Broth microdilution MIC in CAMHB; format: cell-based; settings: Escherichia coli; E. coli D22 (hyper-permeable); MHB; read-out: Minimum Inhibitory Concentration, E. coli D22
Outline: as §1

[9] = tested on: E. coli 901C; assay: Broth microdilution MIC in CAMHB; format: cell-based; settings: Escherichia coli; E. coli 901C (hyper-permeable); MHB; read-out: Minimum Inhibitory Concentration, E. coli 901C
Outline: as §1

[10] = tested on: E. coli AG100A; assay: Broth microdilution MIC in CAMHB; format: cell-based; settings: Escherichia coli, read-out: Minimum Inhibitory Concentration, E. coli AG100A
Outline: as §1

[11] = tested on: P. aeruginosa (ΔmexAB-oprM); assay: Broth microdilution MIC in CAMHB; format: cell-based; settings: Pseudomonas aeruginosa, read-out: Minimum Inhibitory Concentration, P. aeruginosa ΔmexAB-OprM
Outline: as §1

[12] = biological target: T1, E. coli K12 PBP3 (Escherichia coli, UniProt P0AD68); assay: biochemical; format: binding
T1 construct: made in house
T1 sequence (P0AD68 1-577): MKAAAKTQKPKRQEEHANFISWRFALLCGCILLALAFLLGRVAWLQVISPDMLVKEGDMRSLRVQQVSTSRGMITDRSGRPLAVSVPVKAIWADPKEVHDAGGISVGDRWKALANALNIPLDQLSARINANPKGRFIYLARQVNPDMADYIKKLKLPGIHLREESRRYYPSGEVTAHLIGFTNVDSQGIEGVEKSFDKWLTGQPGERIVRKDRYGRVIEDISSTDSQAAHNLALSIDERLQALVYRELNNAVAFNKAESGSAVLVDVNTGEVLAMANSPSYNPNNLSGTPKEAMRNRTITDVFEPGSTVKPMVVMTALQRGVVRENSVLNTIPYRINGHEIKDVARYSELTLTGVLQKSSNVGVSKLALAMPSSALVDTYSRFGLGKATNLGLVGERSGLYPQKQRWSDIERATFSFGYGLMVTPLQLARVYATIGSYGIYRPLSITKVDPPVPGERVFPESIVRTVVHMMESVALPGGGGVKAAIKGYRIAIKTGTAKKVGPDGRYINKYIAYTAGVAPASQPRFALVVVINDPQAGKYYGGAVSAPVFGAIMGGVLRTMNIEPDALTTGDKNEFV
Outline: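 A. baumannii PBP2 (2.5 μM) and PBP3 (0.2 μM) were run in 25 mM Tris pH 8.0 buffer with Tween 20; E. coli PBP3 (1.5 μM) and N. gonorrhoeae PBP2 ([…]) in 50 mM Hepes pH 8.0 buffer.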

[13] = tested on: P. aeruginosa PAO1; assay: Broth microdilution MIC in CAMHB; format: cell-based; settings: Pseudomonas aeruginosa, MHB, read-out: Minimum Inhibitory Concentration, P. aeruginosa PAO1
Method: To determine the ability of test compounds to inhibit the growth of bacterial strains, classic cell based broth microdilution minimum inhibitory concentration (MIC) assays were employed. MIC assays are performed according to CLSI methods except where otherwise noted (CLSI, 2018 and CLSI, 2019). The reference type strain E. coli ATCC 25922; the wild-type parent strain E. coli AG100; the hyper-permeable E. coli 901C and E. coli D22; and the E. coli AG100A strain lacking the acrAB efflux pump encoding genes were used to determine the ability of the PBP inhibitors to penetrate the outer membrane of gram-negative bacteria and inhibit bacterial growth. […] The P. aeruginosa ATCC 27853 and A. baumannii ATCC 19606, along with the hyper-permeable P. aeruginosa ATCC 35151 and an engineered efflux pump-compromised strain of P. aeruginosa (ΔmexAB-oprM) were used to determine the ability of PBP inhibitors to penetrate the outer membrane of P. aeruginosa and A. baumannii and assess antibacterial activity against these important gram-negative organisms.
Briefly, cryo-preserved bacterial cultures of challenge strains are streaked for isolation on appropriate agar medium, in this case cation-adjusted Mueller Hinton agar. Following incubation to allow growth of the colonies, plates are sealed with parafilm and stored refrigerated for up to two weeks. For preparation of assay inoculum and to ensure low variability, at least 5 colonies are picked from the agar plates with an inoculating loop and aseptically transferred to a culture tube containing 3 mL of cation-adjusted Mueller Hinton broth (CAMHB). The broth culture is grown for 3-5 hours at 37° C. with shaking at 200 rpm. Meanwhile, 2-fold serial dilutions of test compounds are conducted in a 96-well plate with a final volume of 75 μL per well at 2-fold the final desired concentration. After the dilution plates are set up the growing cultures are then diluted in a cuvette containing CAMHB and the optical density is measured at 600 nm. The inoculum is diluted such that 75 μL of this culture in CAMHB results in a starting bacterial concentration of 2-8×10^5 CFU/mL when added to the dilution plates. The plates are incubated for 16-20 hours for Enterobacteriaceae and Pseudomonas and 20-24 hours for Acinetobacter at 37° C. The MIC values are read visually as the lowest concentration well with no bacterial growth.

[14] = biological target: T2, P. aeruginosa PBP3 (Pseudomonas aeruginosa, UniProt G3XD46); assay: Bocillin-FL fluorescence polarization competition binding assay, P. aeruginosa PBP3; settings: fluorescence polarization competition binding assay using Bocillin-FL
T2 construct: made in house
T2 sequence (G3XD46 whole entry): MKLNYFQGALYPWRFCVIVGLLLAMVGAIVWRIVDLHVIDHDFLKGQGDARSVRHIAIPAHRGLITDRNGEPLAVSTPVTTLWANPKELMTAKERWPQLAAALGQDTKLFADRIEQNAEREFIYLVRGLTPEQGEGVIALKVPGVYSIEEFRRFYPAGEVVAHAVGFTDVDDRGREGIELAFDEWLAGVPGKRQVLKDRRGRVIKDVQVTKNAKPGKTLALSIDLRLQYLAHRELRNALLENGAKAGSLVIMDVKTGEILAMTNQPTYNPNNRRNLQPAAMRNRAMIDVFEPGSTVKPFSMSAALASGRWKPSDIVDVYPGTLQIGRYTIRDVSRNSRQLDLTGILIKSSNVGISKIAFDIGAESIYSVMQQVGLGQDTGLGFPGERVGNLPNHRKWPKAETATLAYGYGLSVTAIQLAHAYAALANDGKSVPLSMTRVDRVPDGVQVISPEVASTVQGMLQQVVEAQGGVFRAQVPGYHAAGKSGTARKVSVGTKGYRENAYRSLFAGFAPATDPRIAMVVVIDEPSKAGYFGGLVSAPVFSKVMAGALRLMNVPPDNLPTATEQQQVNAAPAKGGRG
Outline: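 Inhibitor competition with Bocillin-FL for P. aeruginosa PBP3 was followed by fluorescence polarization on a Cytation3 (BioTek) reader, using g-factor 0.96, 490 nm excitation and 520 nm emission. The enzyme was at 0.75 μM and the probe at 0.1 μM in Hepes/NaCl/glycerol buffer, 80 μl per well. FP was recorded immediately after probe addition for up to 60 minutes. Potency was expressed as EC50, the concentration that reduces bound probe by 50%.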

Row | SMILES | MIC [1] [µg/mL] | MIC [2] [µg/mL] | MIC [3] [µg/mL] | MIC [4] [µg/mL] | MIC [5] [µg/mL] | MIC [6] [µg/mL] | MIC [7] [µg/mL] | MIC [8] [µg/mL] | MIC [9] [µg/mL] | MIC [10] [µg/mL] | MIC [11] [µg/mL] | EC50 [12] [µM] | MIC [13] [µg/mL] | P. aeruginosa PBP3 Potency [14]
1 | CCN1CCN(C(=O)NC(C(=O)N[C@H]2Cc3ccc(SC)c(C(=O)O)c3OB2O)c2csc(N)n2)C(=O)C1=O (stereo partly drawn) [Example 56, (3R)-3-(2-(2-aminothiazol-4-yl)-2-(4-ethyl-2,3-dioxopiperazine-1-carboxamido)acetamido)-2-hydroxy-7-(methylthio)-3,4-dihydro-2H-benzo[e][1,2]oxaborinine-8-carboxylic acid] | > 128 | 32 to 64 (≈ 55.5 to 111 µM) | 8 to 16 (≈ 13.9 to 27.8 µM) | 32 to 64 (≈ 55.5 to 111 µM) | 32 to 64 (≈ 55.5 to 111 µM) | 0.5 to 1 (≈ 0.867 to 1.73 µM) | 32 to 64 (≈ 55.5 to 111 µM) | 8 to 16 (≈ 13.9 to 27.8 µM) | 0.5 to 1 (≈ 0.867 to 1.73 µM) | 8 to 16 (≈ 13.9 to 27.8 µM) | 32 to 64 (≈ 55.5 to 111 µM) | 30 to 500 | > 128 | –
2 | CCN1CCN(C(=O)NC(C(=O)N[C@H]2Cc3ccc(O)c(C(=O)O)c3OB2O)c2ccccc2)C(=O)C1=O (stereo partly drawn) [Example 61, (3R)-3-(2-(4-ethyl-2,3-dioxopiperazine-1-carboxamido)-2-phenylacetamido)-2,7-dihydroxy-3,4-dihydro-2H-benzo[e][1,2]oxaborinine-8-carboxylic acid] | > 128 | 32 to 64 (≈ 61 to 122 µM) | > 128 | > 128 | > 128 | 8 to 16 (≈ 15.3 to 30.5 µM) | 32 to 64 (≈ 61 to 122 µM) | 8 to 16 (≈ 15.3 to 30.5 µM) | 0.5 to 1 (≈ 0.954 to 1.91 µM) | 32 to 64 (≈ 61 to 122 µM) | > 128 | – | > 128 | B (B represents a potency between 30 μM and 500 μM inclusive)
3 | CCN1CCN(C(=O)NC(C(=O)N[C@H]2Cc3ccc(C=NOCCN)c(C(=O)O)c3OB2O)c2csc(N)n2)C(=O)C1=O (stereo partly drawn) [Example 62, (3R)-7-(((2-aminoethoxy)imino)methyl)-3-(2-(2-aminothiazol-4-yl)-2-(4-ethyl-2,3-dioxopiperazine-1-carboxamido)acetamido)-2-hydroxy-3,4-dihydro-2H-benzo[e][1,2]oxaborinine-8-carboxylic acid] | > 128 | > 128 | > 128 | > 128 | > 128 | 8 to 16 (≈ 13 to 26 µM) | > 128 | 32 to 64 (≈ 51.9 to 104 µM) | 32 to 64 (≈ 51.9 to 104 µM) | 32 to 64 (≈ 51.9 to 104 µM) | > 128 | > 500 | > 128 | B (B represents a potency between 30 μM and 500 μM inclusive)
4 | CCN1CCN(C(=O)NC(C(=O)N[C@H]2Cc3ccc(C(F)(F)F)c(C(=O)O)c3OB2O)c2csc(N)n2)C(=O)C1=O (stereo partly drawn) [Example 63, (3R)-3-(2-(2-aminothiazol-4-yl)-2-(4-ethyl-2,3-dioxopiperazine-1-carboxamido)acetamido)-2-hydroxy-7-(trifluoromethyl)-3,4-dihydro-2H-benzo[e][1,2]oxaborinine-8-carboxylic acid] | > 128 | > 128 | > 128 | > 128 | > 128 | 8 to 16 (≈ 13.4 to 26.7 µM) | > 128 | > 128 | 8 to 16 (≈ 13.4 to 26.7 µM) | > 128 | > 128 | > 500 | > 128 | B (B represents a potency between 30 μM and 500 μM inclusive)
5 | CCN1CCN(C(=O)NC(C(=O)N[C@H]2Cc3ccc(SCC[N+]4(C)CCCC4)c(C(=O)O)c3OB2O)c2csc(N)n2)C(=O)C1=O.O=C([O-])C(F)(F)F (stereo partly drawn) [Example 65, 1-(2-(((3R)-3-(2-(2-aminothiazol-4-yl)-2-(4-ethyl-2,3-dioxopiperazine-1-carboxamido)acetamido)-8-carboxy-2-hydroxy-3,4-dihydro-2H-benzo[e][1,2]oxaborinin-7-yl)thio)ethyl)-1-methylpyrrolidin-1-ium 2,2,2-trifluoroacetate] | > 128 | > 128 | > 128 | > 128 | > 128 | 8 to 16 | > 128 | > 128 | 32 to 64 | 32 to 64 | > 128 | > 500 | > 128 | –
6 | CCN1CCN(C(=O)NC(C(=O)N[C@H]2Cc3ccc(SCCNCCN)c(C(=O)O)c3OB2O)c2csc(N)n2)C(=O)C1=O (stereo partly drawn) [Example 66, (3R)-7-((2-((2-aminoethyl)amino)ethyl)thio)-3-(2-(2-aminothiazol-4-yl)-2-(4-ethyl-2,3-dioxopiperazine-1-carboxamido)acetamido)-2-hydroxy-3,4-dihydro-2H-benzo[e][1,2]oxaborinine-8-carboxylic acid] | > 128 | > 128 | > 128 | > 128 | > 128 | 8 to 16 (≈ 12.3 to 24.7 µM) | > 128 | 32 to 64 (≈ 49.3 to 98.7 µM) | 32 to 64 (≈ 49.3 to 98.7 µM) | 32 to 64 (≈ 49.3 to 98.7 µM) | > 128 | > 500 | > 128 | –
7 | CCN1CCN(C(=O)NC(C(=O)N[C@H]2Cc3ccc(SCCN)c(C(=O)O)c3OB2O)c2csc(N)n2)C(=O)C1=O (stereo partly drawn) [Example 67, (3R)-7-((2-aminoethyl)thio)-3-(2-(2-aminothiazol-4-yl)-2-(4-ethyl-2,3-dioxopiperazine-1-carboxamido)acetamido)-2-hydroxy-3,4-dihydro-2H-benzo[e][1,2]oxaborinine-8-carboxylic acid] | > 128 | > 128 | 32 to 64 (≈ 52.9 to 106 µM) | 32 to 64 (≈ 52.9 to 106 µM) | > 128 | 0.5 to 1 (≈ 0.826 to 1.65 µM) | 32 to 64 (≈ 52.9 to 106 µM) | 8 to 16 (≈ 13.2 to 26.4 µM) | 0.5 to 1 (≈ 0.826 to 1.65 µM) | 32 to 64 (≈ 52.9 to 106 µM) | 32 to 64 (≈ 52.9 to 106 µM) | 30 to 500 | > 128 | –
